What was measured:
interferon (α) (IFN-α) = test: Cytokine induction in human cells: IFN-α secreted by PBMC into culture media (ELISA); assay type: cell-based; conditions: Table 11; human PBMC; median where tested in more than one experiment
Procedure, shortened: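 IFN-α secreted by density-gradient-isolated PBMC (final 2×10^6 cells/mL) was quantified by ELISA after 18–24 h compound exposure at 37 °C, typically 30-0.014 μM in 3-fold steps with ≤1% DMSO. Readings corrected for background and reference-compound variability; lowest concentration above usually 20 pg/mL reported, plus maximal response (pg/mL).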

[1] = test system: tumor necrosis factor (α) (TNF-α); test: Cytokine induction in human cells: TNF-α secreted by PBMC into culture media (ORIGEN M-Series immunoassay); assay type: cell-based; design: key to Maximal Response (pg/mL) TNF / Maximal Response TNF: If any negative values result from background subtraction, the reading is reported as “*”, and is noted as not reliably detectable; conditions: Table 11, human PBMC; for Minimum Effective Concentration TNF: median where tested in more than one experiment; for Maximal Response TNF: median, * = TNF below experimental background of 40 pg/mL
Procedure, shortened: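 Secreted TNF-α (pg/mL) was quantified by ORIGEN M-Series immunoassay after 18 to 24 hours culture at 37° C of human PBMC (2×10^6 cells/mL final) with test compound (usually 30-0.014 μM, 3-fold series, DMSO ≤1%). Values were corrected for DMSO or experimental background and a reference-compound ratio, giving a minimum effective concentration.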

SMILES | melting point [°C] | Maximal Response IFN (interferon (α) (IFN-α)) [pg/mL] | Minimum Effective Concentration IFN (interferon (α) (IFN-α)) [µM] | Minimum Effective Concentration TNF [1] [µM] | Maximal Response TNF [1]
CC(C)[C@H](N)C(=O)OCc1nc2c(N)nc3ccccc3c2n1CC(C)(C)O [Example 636, [4-Amino-1-(2-hydroxy-2-methylpropyl)-1H-imidazo[4,5-c]quinolin-2-yl]methyl L-valinate] | 190 to 192 | – | – | – | –
CC(C)(O)Cn1c(CO)nc2c(N)nc3cc(OCc4cscn4)ccc3c21 [Example 187, 1-[4-Amino-2-hydroxymethyl-7-(thiazol-4-ylmethoxy)-1H-imidazo[4,5-c]quinolin-1-yl]-2-methylpropan-2-ol] | 260 to 262 | – | – | – | –
CC(=O)OCCc1nc2c(N)nc3ccccc3c2n1CC(C)C [Example 634, 2-(4-Amino-1-isobutyl-1H-imidazo[4,5-c]quinolin-2-yl)ethyl acetate] | 187 to 189 | – | – | – | –
CC(=O)OCc1nc2c(N)nc3ccccc3c2n1CC(C)(C)O [Example 635, [4-Amino-1-(2-hydroxy-2-methylpropyl)-1H-imidazo[4,5-c]quinolin-2-yl]methyl acetate] | 203 to 205 | – | – | – | –
CC(C)(CNS(C)(=O)=O)Cn1c(CCO)nc2c(N)nc3ccccc3c21 [Example 131] | – | 8361 | 0.37 | >30 | *
Cc1ccc(C)c(S(=O)(=O)NCCCCn2c(CCO)nc3c(N)nc4ccccc4c32)c1 [Example 36] | – | 3316 | 10 | >30 | *
CCNC(=O)NCCn1c(CCO)nc2c(N)nc3ccccc3c21 [Example 137] | – | 801 | 30 | 30 | 73 pg/mL

Reference: patent US8846710B2, “Method of preferentially inducing the biosynthesis of interferon” (3M Innovative Properties Company, priority 2005, dated 2014)
